Measurements from paper PMC10780633, “Novel Multi-Target Agents Based on the Privileged Structure of 4-Hydroxy-2-quinolinone” (Molecules, 2023).

Experiments:
[1] = Interaction with the stable free radical DPPH (reducing activity); details: for Interaction with the Free Radical DPPH (%): 100 μM; for DPPH radical scavenging activity, time not specified: reaction time not given
Protocol: (§1) In this work, the carboxamides 3a–3u, the quinolinone–cinnamic or benzoic acid hybrids 11a–11g and the reverse amides 16a–16c were tested for their antioxidant activity via five in vitro techniques; (i) the interaction with the stable free radical 2,2-diphenyl-1-picrylhydrazyl (DPPH); (ii) the inhibition of lipid peroxidation; (iii) the hydroxyl radical scavenging ability; (iv) the 2,2-azino-bis(3-ethylbenzothiazoline-6-sulfonic acid (ABTS) radical cation (ABTS·^+) reduction; and (v) the superoxide anion radical scavenging ability.

[2] = Inhibition of lipid peroxidation of linoleic acid induced by AAPH radical; details: 100 μM
Protocol: as §1
The assay for the determination of the inhibition of linoleic acid peroxidation induced by the free radical initiator […](2-amidinopropane) dihydrochloride (AAPH) was performed according to the methods of Hadjipavlou-Litina et al., which we have also used in our previous works.

[3] = Competition with DMSO for hydroxyl radicals; details: 0.1 mM
Protocol: as §1
The assay was performed according to the methods of Pontiki et al. Trolox was used as a reference compound [78].

[4] = ABTS radical cation decolorization assay; details: 0.1 mM
Protocol: as §1
The experimental technique used in this section was performed according to the methods of Pontiki et al.. The results were compared to the appropriate standard inhibitor Trolox.

[5] = Non-enzymatic superoxide anion radical scavenging assay (PMS); details: 0.1 mM
Protocol: as §1
The experimental technique used for this assay was performed according to our previous works. Caffeic acid was used as an appropriate standard.

soybean lipoxygenase = biological target: T1, soybean lipoxygenase (Glycine max, UniProt P08170); assay: Soybean LOX inhibition in vitro (UV absorbance-based assay); format: biochemical; details: for inhibition at 100 µM / Inhibition of Soybean Lipoxygenase % at 0.1 mM: 0.1 mM
T1 construct: purchased Sigma Chemical, Co. (St. Louis, MO, USA)
T1 sequence (P08170 1-839): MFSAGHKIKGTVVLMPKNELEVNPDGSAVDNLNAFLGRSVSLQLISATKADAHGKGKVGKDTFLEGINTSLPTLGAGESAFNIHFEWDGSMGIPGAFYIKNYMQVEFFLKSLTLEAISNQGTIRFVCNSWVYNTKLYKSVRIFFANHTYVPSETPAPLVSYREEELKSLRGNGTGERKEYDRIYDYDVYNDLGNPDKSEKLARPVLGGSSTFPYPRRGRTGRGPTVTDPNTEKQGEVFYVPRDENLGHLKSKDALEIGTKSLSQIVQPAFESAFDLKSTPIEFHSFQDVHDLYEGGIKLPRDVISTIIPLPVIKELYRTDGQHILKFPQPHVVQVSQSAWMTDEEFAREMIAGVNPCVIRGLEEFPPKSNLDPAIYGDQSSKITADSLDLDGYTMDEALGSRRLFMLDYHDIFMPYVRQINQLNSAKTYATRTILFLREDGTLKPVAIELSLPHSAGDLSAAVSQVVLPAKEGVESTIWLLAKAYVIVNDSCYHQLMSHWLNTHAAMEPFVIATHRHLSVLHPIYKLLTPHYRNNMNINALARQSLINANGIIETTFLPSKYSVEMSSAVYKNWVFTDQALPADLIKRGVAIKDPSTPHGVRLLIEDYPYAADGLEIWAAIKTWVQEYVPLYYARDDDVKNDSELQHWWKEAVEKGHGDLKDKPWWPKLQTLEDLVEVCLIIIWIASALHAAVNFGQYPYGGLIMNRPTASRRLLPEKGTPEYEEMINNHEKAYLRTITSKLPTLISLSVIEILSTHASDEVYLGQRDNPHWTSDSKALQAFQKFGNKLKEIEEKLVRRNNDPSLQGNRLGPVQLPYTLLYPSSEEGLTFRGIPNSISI
Protocol: For this study, the UV absorbance-based soybean LOX assay was used.
The assay for the determination of the inhibition of soybean LOX was performed according to the methods of Hadjipavlou-Litina et al., which we have also used in our previous works.

[6] = set-up: method as in PMID 16955399, PMID 26834836; details: more potent than linomide; cited from earlier work

| Structure (SMILES) | Interaction with the Free Radical DPPH (%) ([1]; 20 min) | Interaction with the Free Radical DPPH (%) ([1]; 60 min) | DPPH radical scavenging activity, time not specified [1] | Inhibition of Lipid Peroxidation of Linoleic Acid Induced by AAPH Radical (%) [2] | OH% (hydroxyl radical scavenging) [3] | ABTS% (ABTS radical cation decolorization) [4] | PMS% (superoxide anion radical scavenging) [5] | inhibition at 100 µM (soybean lipoxygenase) | IC50 (soybean lipoxygenase) | Inhibition of Soybean Lipoxygenase % at 0.1 mM (soybean lipoxygenase) | melting point | Anti-tumor potency relative to linomide [6] |
| --- | --- | --- | --- | --- | --- | --- | --- | --- | --- | --- | --- | --- |
| Cn1c(=O)c(C(=O)Nc2ccc(F)cc2)c(O)c2ccccc21 [Compound 3m, N-(4-fluorophenyl)-4-hydroxy-1-methyl-2-oxo-1,2-dihydroquinoline-3-carboxamide] | 3.1% | 1.2% | inactive | 11.3% | 94.0% | 12.4% | no | 15% |  |  |  |  |
| O=C(NCCc1ccc(O)cc1)c1c(O)c2ccccc2n(-c2ccccc2)c1=O [Compound 3n, 4-hydroxy-N-(4-hydroxyphenethyl)-2-oxo-1-phenyl-1,2-dihydroquinoline-3-carboxamide] | 13.9% | 19.2% |  | 100% | 14.9% | no | no |  | 85 µM |  |  |  |
| Cn1c(=O)c(C(=O)NCCc2ccc(O)cc2)c(O)c2ccccc21 [Compound 3o, 4-hydroxy-N-(4-hydroxyphenethyl)-1-methyl-2-oxo-1,2-dihydroquinoline-3-carboxamide] | 20.8% | 8.0% |  | 100% | 44.3% | 20.6% | no |  |  | no |  |  |
| Cc1ccc(NC(=O)c2c(O)c3ccccc3n(-c3ccccc3)c2=O)cc1 [Compound 3r, 4-hydroxy-2-oxo-1-phenyl-N-(p-tolyl)-1,2-dihydroquinoline-3-carboxamide] | 12.1% | 1.2% | inactive | 17.1% | 50.7% | no | no | 37.5% |  | 37.4% |  |  |
| O=C(Nc1ccc(F)cc1)c1c(O)c2ccccc2n(-c2ccccc2)c1=O [Compound 3s, N-(4-fluorophenyl)-4-hydroxy-2-oxo-1-phenyl-1,2-dihydroquinoline-3-carboxamide] | 21.2% | 8.1% | inactive | 28.9% | 100% | no | no |  | 10 µM |  |  |  |
| Cn1c(=O)c(C(=O)Nc2ccncc2)c(O)c2ccccc21 [Compound 3t, 4-hydroxy-1-methyl-2-oxo-N-(pyridin-4-yl)-1,2-dihydroquinoline-3-carboxamide] | 19.7% | 9.5% |  | 100% | inactive and no | no | no |  |  | inactive and no |  |  |
| CCn1c(=O)c(C(=O)NCCN)c(O)c2ccccc21 [Compound 7, N-(2-Aminoethyl)-1-ethyl-4-hydroxy-2-oxo-1,2-dihydroquinoline-3-carboxamide] |  |  |  |  |  |  |  |  |  |  | 161 °C |  |
| COc1cccc2c1c(O)c(C(=O)N(C)c1ccc(C(F)(F)F)cc1)c(=O)n2C [Tasquinimod] |  |  |  |  |  |  |  |  |  |  |  | 30–60 times |
